For two compounds, HDAC1 activity, HDAC9 activity and SIRT1 activity results are on record in US20220105051A1, “COMPOUNDS FOR INCREASING MHC-I EXPRESSION AND MODULATING HISTONE DEACETYLASE ACTIVITY” (Cava Healthcare Inc., priority 2019, published 2022).

Format in all cases: biochemical
Common to all, as to conditions: purified enzyme, 5 to 0.02 μM

For test [1], the target named is T1, HDAC1 (Homo sapiens, UniProt Q13547).
T1 construct: purchased BPS Biosciences
Put plainly: Individualized HDAC assay, HDAC1. As to the method: The activity of the curcuphenol analogues was assessed with purified HDAC enzymes from all classes I, II, and IV, as well as a select member of HDAC class III (SIRT1). HDACs 1-9 and SIRT1 were evaluated using HDAC Fluorogenic Assay Kits (BPS Biosciences). All assays were completed in black-sided clear-bottom 96 well plates (PerkinElmer), and all treatments were plated in triplicates. Treatment started at 5 μM and was two-fold diluted to a concentration 0.02 μM. The assays were measured using the Synergy HI hybrid reader (BioTek) and Gen5 software (BioTek), excitation was set to 360 nm and detection was measured at 450 nm with a gain of 100. […] Luminescence was read 30 minutes after HDAC-Glo™I/II reagent was added using the Synergy HI hybrid reader (BioTek) and Gen5 software (Bio-Tek). […] The relative mean of activity of the HDAC being measured was determined and all wells that received treatment were divided this average, to give a percentage of activity.
To evaluate the effect of the compounds on specific HDACs, their activity was assessed with purified HDAC enzymes from all classes I, II, and IV, as well as a select member of HDAC class III (SIRT1). HDACs 1-9 and SIRT1 were evaluated using HDAC Fluorogenic Assay Kits (BPS Biosciences) following the manufacturer's recommendations. […] The assays were measured using the Synergy HI hybrid reader (BioTek) and Gen5 software (Bio-Tek). […]

In test [2] the target is T2, HDAC9 (Homo sapiens, UniProt Q9UKV0).
T2 construct: purchased BPS Biosciences
T2 sequence (Q9UKV0 whole entry): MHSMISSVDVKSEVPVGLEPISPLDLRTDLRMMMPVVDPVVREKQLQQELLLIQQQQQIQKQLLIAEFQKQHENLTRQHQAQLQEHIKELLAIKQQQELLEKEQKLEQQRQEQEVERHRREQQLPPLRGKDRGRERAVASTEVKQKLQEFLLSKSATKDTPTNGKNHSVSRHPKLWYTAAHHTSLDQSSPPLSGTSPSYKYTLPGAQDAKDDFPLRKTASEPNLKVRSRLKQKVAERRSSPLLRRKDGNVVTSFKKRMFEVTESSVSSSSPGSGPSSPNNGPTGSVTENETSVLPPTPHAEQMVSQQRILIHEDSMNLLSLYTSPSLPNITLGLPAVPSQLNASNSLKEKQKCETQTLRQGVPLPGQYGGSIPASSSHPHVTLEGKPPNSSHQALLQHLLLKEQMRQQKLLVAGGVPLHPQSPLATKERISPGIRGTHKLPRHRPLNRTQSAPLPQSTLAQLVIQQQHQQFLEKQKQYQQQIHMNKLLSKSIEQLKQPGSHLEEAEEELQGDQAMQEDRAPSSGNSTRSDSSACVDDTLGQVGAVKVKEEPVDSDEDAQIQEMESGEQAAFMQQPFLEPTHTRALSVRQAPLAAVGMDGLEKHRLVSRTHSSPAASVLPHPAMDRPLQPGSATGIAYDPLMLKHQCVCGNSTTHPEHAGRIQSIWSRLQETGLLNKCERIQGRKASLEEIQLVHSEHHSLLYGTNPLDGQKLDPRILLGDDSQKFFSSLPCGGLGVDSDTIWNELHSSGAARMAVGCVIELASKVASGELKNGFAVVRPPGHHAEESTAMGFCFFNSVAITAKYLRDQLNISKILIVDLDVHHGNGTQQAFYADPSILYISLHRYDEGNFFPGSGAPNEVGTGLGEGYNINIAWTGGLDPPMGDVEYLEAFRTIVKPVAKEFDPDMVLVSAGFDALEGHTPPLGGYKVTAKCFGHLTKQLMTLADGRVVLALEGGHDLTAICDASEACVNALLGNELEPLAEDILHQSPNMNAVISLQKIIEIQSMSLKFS
Put plainly: Individualized HDAC assay, HDAC9. As for the experimental part: (§1) The activity of the curcuphenol analogues was assessed with purified HDAC enzymes from all classes I, II, and IV, as well as a select member of HDAC class III (SIRT1). HDACs 1-9 and SIRT1 were evaluated using HDAC Fluorogenic Assay Kits (BPS Biosciences). All assays were completed in black-sided clear-bottom 96 well plates (PerkinElmer), and all treatments were plated in triplicates. Treatment started at 5 μM and was two-fold diluted to a concentration 0.02 μM. The assays were measured using the Synergy HI hybrid reader (BioTek) and Gen5 software (BioTek), excitation was set to 360 nm and detection was measured at 450 nm with a gain of 100. Alternatively HDAC 10 and 11 (BPS Biosciences) were optimized for HDAC concentration using the HDAC-Glo™ I/II Assay and Screening System (Promega). Following optimization each HDAC was run following the Promega protocol in black-sided clear-bottomed 96 well plates in triplicates with same treatments listed above (PerkinElmer). Luminescence was read 30 minutes after HDAC-Glo™I/II reagent was added using the Synergy HI hybrid reader (BioTek) and Gen5 software (Bio-Tek). […] To calculate percent activity, the average of blank wells was subtracted from all treatment groups. The relative mean of activity of the HDAC being measured was determined and all wells that received treatment were divided this average, to give a percentage of activity.
To evaluate the effect of the compounds on specific HDACs, their activity was assessed with purified HDAC enzymes from all classes I, II, and IV, as well as a select member of HDAC class III (SIRT1). HDACs 1-9 and SIRT1 were evaluated using HDAC Fluorogenic Assay Kits (BPS Biosciences) following the manufacturer's recommendations. Compound treatment started at 5 μM and was two-fold diluted to a concentration 0.02 μM. […] The assays were measured using the Synergy HI hybrid reader (BioTek) and Gen5 software (Bio-Tek). […] To calculate the fold change in HDAC activity, the values from each treated well were divided by the relative mean of activity of the specific HDAC being measured.

The target of test [3] is T3, SIRT1 (Homo sapiens, UniProt Q96EB6).
T3 construct: purchased BPS Biosciences
T3 sequence (Q96EB6 1-747): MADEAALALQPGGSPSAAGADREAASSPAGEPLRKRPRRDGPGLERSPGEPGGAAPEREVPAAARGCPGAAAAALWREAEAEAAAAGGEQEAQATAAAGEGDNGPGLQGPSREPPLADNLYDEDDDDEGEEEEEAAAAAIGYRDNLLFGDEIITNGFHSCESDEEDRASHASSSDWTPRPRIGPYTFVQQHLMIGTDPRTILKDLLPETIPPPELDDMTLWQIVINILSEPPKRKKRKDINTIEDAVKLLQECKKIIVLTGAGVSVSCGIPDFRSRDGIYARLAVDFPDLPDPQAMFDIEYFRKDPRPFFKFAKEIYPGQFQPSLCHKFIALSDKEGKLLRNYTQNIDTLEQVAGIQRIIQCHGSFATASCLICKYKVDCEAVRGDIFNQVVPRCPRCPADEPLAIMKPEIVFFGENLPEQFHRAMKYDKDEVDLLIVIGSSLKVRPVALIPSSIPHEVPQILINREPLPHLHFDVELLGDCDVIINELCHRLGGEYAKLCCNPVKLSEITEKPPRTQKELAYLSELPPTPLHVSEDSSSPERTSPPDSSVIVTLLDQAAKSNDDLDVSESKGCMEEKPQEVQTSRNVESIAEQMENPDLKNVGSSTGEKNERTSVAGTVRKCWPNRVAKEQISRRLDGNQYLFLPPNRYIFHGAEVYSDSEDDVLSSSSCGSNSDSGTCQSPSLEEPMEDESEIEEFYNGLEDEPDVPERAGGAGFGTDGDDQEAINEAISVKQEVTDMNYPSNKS
Put plainly: Individualized HDAC assay, SIRT1. As for the experimental part: as §1
To evaluate the effect of the compounds on specific HDACs, their activity was assessed with purified HDAC enzymes from all classes I, II, and IV, as well as a select member of HDAC class III (SIRT1). HDACs 1-9 and SIRT1 were evaluated using HDAC Fluorogenic Assay Kits (BPS Biosciences) following the manufacturer's recommendations. Compound treatment started at 5 μM and was two-fold diluted to a concentration 0.02 μM. Alternatively, HDAC 10 and 11 assays (BPS Biosciences) were optimized to be used with the HDAC-Glo™ I/II Assay and Screening System (Promega). The assays were measured using the Synergy HI hybrid reader (BioTek) and Gen5 software (Bio-Tek). […] To calculate the fold change in HDAC activity, the values from each treated well were divided by the relative mean of activity of the specific HDAC being measured.

“Also recorded” adds a separate entry of the source.

T1 sequence (Q13547 whole entry): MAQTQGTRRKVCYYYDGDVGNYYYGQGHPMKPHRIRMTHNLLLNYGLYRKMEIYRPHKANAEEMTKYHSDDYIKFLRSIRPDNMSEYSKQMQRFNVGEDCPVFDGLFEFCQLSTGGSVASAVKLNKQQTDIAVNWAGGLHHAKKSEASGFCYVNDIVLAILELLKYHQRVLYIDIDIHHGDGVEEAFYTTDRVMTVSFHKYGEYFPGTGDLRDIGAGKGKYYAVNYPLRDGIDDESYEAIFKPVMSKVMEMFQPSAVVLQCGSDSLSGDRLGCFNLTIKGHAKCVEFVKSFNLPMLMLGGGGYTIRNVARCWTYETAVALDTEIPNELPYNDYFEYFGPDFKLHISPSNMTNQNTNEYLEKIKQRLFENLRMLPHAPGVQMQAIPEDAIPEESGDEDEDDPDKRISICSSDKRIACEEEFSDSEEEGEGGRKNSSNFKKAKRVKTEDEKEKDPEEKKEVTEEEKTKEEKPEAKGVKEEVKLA

As for `CC(C)=CCCCc1ccc(C)cc1O` [P02-113], the HDAC1 activity result in test [1] is “no significant change in HDAC activity”. The HDAC9 activity entry in test [2] was “no change in activity; also recorded: did not affect the activity; also recorded: unaffected”. In test [3], the SIRT1 activity result is recorded as “did not demonstrate a change in activity; also recorded: no effect was observed; also recorded: no change in activity”.

On to `COc1ccc(C(C)CCC=C(C)C)c(O)c1` (stereo not drawn) [P03-97-1], for which the HDAC1 activity entry in test [1] is “no significant change in HDAC activity”. For the same compound, the figures for the HDAC9 activity result in test [2] and in test [2] (listed as PO-3-97-1) were “no change in activity; also recorded: unaffected” and “did not affect the activity”, respectively. Further, the SIRT1 activity entry in test [3] was “did not demonstrate a change in activity”; in test [3] (listed as P03-7-1) it was “no change in activity”; in test [3] (listed as PO-3-97-1), “no effect was observed”.
